From patent US7943646B2, “Benzamidine derivative, process for the preparation thereof and pharmaceutical composition comprising same” (Dong Wha Pharmaceutical Co., Ltd., priority 2006, dated 2011)

How the values were obtained:
calvaria = assay: Cytotoxicity test (MTT), calvaria; format: cell-based; settings: 10^−6M, 72 hrs, in comparison with the control group
Method: (§1) The cytotoxic effect of the benzamidine derivative of the present invention was evaluated by carrying out the experiment described below.
(§2) The test substance was diluted in an appropriate solvent at a 10^−2 M concentration. This substance was diluted in an appropriate culture medium for the cells used in the cytotoxicity test to a concentration of […], and loaded into a 96-well plate in 100 μl per well. The cell lines to be used in the cytotoxicity test were plated on a 96-well plate in a dose of 1.0×10^4 cells/1OO μl per well and cultured for 72 hrs. 25 μl of MTT [3-(4,5-dimethyl-2-thiazolyl)-2,5-diphenyl-2H-tetrazolium bromide] dissolved in PBS (2 mg/mL) were added before 4 hrs of the end of culture. After completion of the reaction, the plates were centrifuged, the medium was discarded and 100 μl of DMSO was added to dissolve formazan. Finally, the absorbance of the developed plates was measured at 540 nm. The survival rates of the cells were expressed as % concentration values in comparison with the control group.

MC3T3 = assay: Cytotoxicity test (MTT), MC3T3; format: cell-based; settings: 10^−6M, 72 hrs, in comparison with the control group
Method: as §1, §2

[1] = system: osteoclast differentiation; assay: Inhibitory effect on osteoclast differentiation, co-culture of bone marrow cells and osteoblast, TRAP staining; format: cell-based, mouse; settings: 1 μm, 7 days co-culture, TRAP-positive osteoclasts with 3 or more nuclei, relative to negative controls; for inhibition at 1 µM: Mus musculus, Osteoclast, 168 h, read-out: inhibitory effect on osteoclast differentiation(%)
Method: The effect of the benzamidine derivative of the present invention on osteoclast formation and differentiation process was evaluated via co-culture with an osteoblast.
Tibia was aseptically ectomized from male 6 to 8-week-old ddY mice to harvest bone marrow cells by using a syringe (21G, Korea Green Cross). The bone marrow cells were suspended in 5 mL of an α-MEM medium (Gibco BRL Co., added with sodium bicarbonate (2.0 g/L), streptomycin (100 mg/L) and penicillin ([…]), filtered and then sterilized). The harvested cells were centrifuged at 600×g for 5 mins to collect the whole quantity. To remove the red blood cells in the bone marrow cells, 3 mL of Tris HCl (0.83% NH4Cl, pH 7.5) was added and well mixed. After centrifuging above cells, the numbers of the eukaryotic cells in the harvested bone marrow cells were counted and then immediately used for a co-culture system.
The progenitor bone and the parietal bone were aseptically ectomized from 1 to 2-day-old neonate ICR mice, washed with a phosphate butter solution (PBS) and treated with a mixed enzyme solution (of 0.2% collagenase and 0.1% dispase) sequentially (10, 10, 10, 20, 20 and 20 min), and then 3 to 6 groups of the cells which comprise lot of cells having the characteristics of the osteoblast were intensively collected and washed with a medium (a serum-free α-MEM). The washed cells were cultured in the α-MEM medium containing 10% FBS for 2 to 3 days. After subculturing, the collected cells were used for this experiment, and diluted to a concentration of 1×10^6 cells/mL for storage at −70[…].
The benzamidine derivative of the present invention was dissolved in a sterile distilled water or ethanol to dilute to a desired concentration. The final volume of the sample added to the cell culture medium was set at a ratio of 1:1000.
The bone marrow cells prepared in the above 1-1 and the osteoblast were co-cultured for osteoclast differentiation. Both the bone marrow cells (25,000 cells/cm^2) and the osteoblast (10,000 cells/cm^2) were plated in a 96-well plate using α-MEM medium containing FBS, and then cultured with the samples to be tested for 7 days. Differentiation factors, such as dexamethasone (10^−7 M) and vitamin D3 (10^−8 M), were also co-added to the medium from the first day of cultivation. The medium was changed with a fresh media containing a mixture of the samples and the differentiation factors every 2 to 3 days.
TRAP was used as a marker to measure the matured osteoclast in consideration of its characteristics showing a positive reaction to a TRAP staining solution. The TRAP staining solution was prepared in such the manner that 5 mg of naphtol AS-MS phosphate (sigma N-4875) as a substrate, and 25 mg of a coloring agent (Fast Red Violet LB salt) were dissolved in N,N-dimethylformamide (about 0.5 mL). 50 ml of a 0.1 N NaHCO3 buffer solution containing 50 mM tartaric acid (pH 5.0) was added thereto, and the mixture was stored at a refrigerator prior to use as a staining solution.
After culturing the cells for 7 days, the medium was removed from the wells, the cells were once washed with PBS, and then fixed with PBS containing 10% formalin for 2 to 5 min. The cells were fixed again in a mixed solution of ethanol and acetone (1/1) for about 1 min, and dried off. The cells were further treated by the TRAP staining solution for 15 mins and washed with water and dried off. The osteoclasts with 3 or more nuclei showing a TRAP-positive reaction were counted under a microscopic examination. Each of tests was confirmed over at least three times. The inhibitory effect on osteoclast differentiation of each experimental group, relative to negative controls, was expressed as a percentage (%).

HOS = assay: Cytotoxicity test (MTT), HOS; format: cell-based; settings: 10^−6M, 72 hrs, in comparison with the control group
Method: as §1, §2

SMILES	survival rates of the cells (calvaria)	survival rates of the cells (MC3T3)	inhibition at 1 µM [1]	survival rates of the cells (HOS)	inhibitory effect on osteoclast differentiation(%) [1]
CN(C)CCc1sc(C2CCCCC2)nc1-c1ccc(OCCCCCOc2ccc(C(=N)NO)cc2)cc1 [Example 37, N-hydroxy-4-(5-{4-[2-cyclohexyl-5-(2-dimethylamino-ethyl)-thiazol-4-yl]-phenoxy}-pentyloxy)-benzamidine]	84.7%	94.9%	100%	116.7%	–
CCCN(CCC)CCc1sc(C2CCCCC2)nc1-c1ccc(OCCCCCOc2ccc(C(=N)NO)cc2)cc1 [Example 38, N-hydroxy-4-(5-{4-[2-cyclohexyl-5-(2-dipropylamino-ethyl)-thiazol-4-yl]-phenoxy}-pentyloxy)-benzamidine]	94.9%	104.7%	100%	96.2%	–
N=C(NO)c1ccc(OCCCCCOc2ccc(-c3nc(C4CCCCC4)sc3CCNC3CC3)cc2)cc1 [Example 39, N-hydroxy-4-(5-{4-[2-cyclohexyl-5-(2-cyclopropylamino-ethyl)-thiazol-4-yl]-phenoxy}-pentyloxy)-benzamidine]	93.1%	85.0%	100%	111.0%	–
N=C(NO)c1ccc(OCCCCCOc2ccc(-c3nc(N)sc3CCNCCN3CCOCC3)cc2)cc1 [Example 40, N-hydroxy-4-[5-(4-{2-amino-5-[2-(2-morpholin-4-yl-ethylamino)-ethyl]-thiazol-4-yl}-phenoxy)-pentyloxy]-benzamidine]	99.7%	102.2%	24.6%	103.2%	–
N=C(NO)c1ccc(OCCCCCOc2ccc(-c3nc(-c4ccccc4)sc3CCN3CCOCC3)cc2)cc1 [Example 41, N-hydroxy-4-(5-{4-[5-(2-morpholin-4-yl-ethyl)-2-phenyl-thiazol-4-yl]-phenoxy}-pentloxy)-benzamidine]	78.6%	85.9%	–	78.8%	100%
CCc1nc(-c2ccc(OCCCCCOc3ccc(C(=N)NO)cc3)cc2)c(CCN2CCOCC2)s1 [Example 42, N-hydroxy-4-(5-{4-[2-ethyl-5-(2-morpholin-4-yl-ethyl)-thiazol-4-yl]-phenoxy}-pentyloxy)-benzamidine]	73.8%	81.5%	100%	98.9%	–
CCc1nc(-c2ccc(OCCCCCOc3ccc(C(=N)NO)cc3)cc2)c(CCN2CCSCC2)s1 [Example 43, N-hydroxy-4-(5-{4-[2-ethyl-5-(2-thiomorpholin-4-yl-ethyl)-thiazol-4-yl]-phenoxy}-pentyloxy)-benzamidine]	91.9%	86.5%	97.7%	80.4%	–
Cc1nc(-c2ccc(OCCCCCOc3ccc(C(=N)N)cc3)cc2)c(CCN2CCOCC2)s1 [Example 46, 4-(5-{4-[2-methyl-5-(2-morpholin-4-yl-ethyl)-thiazol-4-yl]-phenoxy}-pentyloxy)-benzamidine]	99.9%	95.3%	63.4%	94.1%	–
CNc1nc(-c2ccc(OCCCCCOc3ccc(C(=N)NO)cc3)cc2)c(CCNCCN2CCOCC2)s1 [Example 50, N-hydroxy-4-[5-(4-{2-methylamino-5-[2-(2-morpholin-4-yl-ethylamino)-ethyl]-thiazol-4-yl}-phenoxy)-pentyloxy]-benzamidine]	92.8%	97.2%	37%	93.6%	–
CNc1nc(-c2ccc(OCCCCCOc3ccc(C(=N)NO)cc3)cc2)c(CCNCCCn2ccnc2)s1 [Example 51, N-hydroxy-4-[5-(4-{5-[2-(3-imidazol-1-yl-propylamino)-ethyl]-2-methylamino-thiazol-4-yl}-phenoxy)-pentyloxy]-benzamidine]	91.7%	93.8%	32%	99.6%	–
N=C(NO)c1ccc(OCCCCCOc2ccc(-c3nc(N(CCN4CCOCC4)Cc4ccccc4)sc3CCN3CCOCC3)cc2)cc1 [Example 56, N-hydroxy-4-(5-{4-[2-[benzyl-(2-morpholin-4-yl-ethyl)-amino]-5-(2-morpholin-4-yl-ethyl)-thiazol-4-yl]-phenoxy}-pentyloxy)-benzamidine]	84.0%	86.0%	100%	98.8%	–
CCN(CC)c1nc(-c2ccc(OCCCCCOc3ccc(C(=N)NO)cc3)cc2)c(CCN2CCOCC2)s1 [Example 57, N-hydroxy-4-(5-{4-[2-diethylamino-5-(2-morpholin-4-yl-ethyl)-thiazol-4-yl]-phenoxy}-pentyloxy)-benzamidine]	87.0%	86.8%	100%	90.7%	–
COCCN(CCOC)c1nc(-c2ccc(OCCCCCOc3ccc(C(=N)NO)cc3)cc2)c(CCN2CCOCC2)s1 [Example 58, N-hydroxy-4-(5-{4-[2-[bis-(2-methoxy-ethyl)-amino]-5-(2-morpholin-4-yl-ethyl)-thiazol-4-yl]-phenoxy}-pentyloxy)-benzamidine]	76.8%	79.2%	100%	85.4%	–
N=C(NO)c1ccc(OCCCCCOc2ccc(-c3nc(N4CCOCC4)sc3CCNCCN3CCOCC3)cc2)cc1 [Example 62, N-hydroxy-4-[5-(4-{2-morpholin-4-yl-5-[2-(2-morpholin-4-yl-ethylamino)-ethyl]-thiazol-4-yl}-phenoxy)-pentyloxy]-benzamidine]	92.7%	97.0%	43.6%	95.1%	–
N=C(NO)c1ccc(OCCCCCOc2ccc(-c3nc(CN4CCCCC4)sc3CCN3CCOCC3)cc2)cc1 [Example 63, N-hydroxy-4-(5-{4-[5-(2-morpholin-4-yl-ethyl)-2-piperidin-1-yl-methyl-thiazol-4-yl]-phenoxy}-pentyloxy)-benzamidine]	86.9%	89.4%	99.2%	86.5%	–
